One may read the pKi as −log10 of the Ki, conventionally taken in molar units. One may read the pIC50 as the IC50 on a negative log10 scale, so that one unit is a factor of ten. A low value points to a large IC50.

pIC50, pKi: −log10 of the molar value.

Here are results for 18 compounds from patent US7335632B2, “Beta-secretase inhibitors and methods of use thereof” (CoMentis, Inc., priority 2001, dated 2008).

One experiment has as its target T1, memapsin 1 (Homo sapiens, UniProt Q9Y5Z0).
T1 sequence (Q9Y5Z0 63-518): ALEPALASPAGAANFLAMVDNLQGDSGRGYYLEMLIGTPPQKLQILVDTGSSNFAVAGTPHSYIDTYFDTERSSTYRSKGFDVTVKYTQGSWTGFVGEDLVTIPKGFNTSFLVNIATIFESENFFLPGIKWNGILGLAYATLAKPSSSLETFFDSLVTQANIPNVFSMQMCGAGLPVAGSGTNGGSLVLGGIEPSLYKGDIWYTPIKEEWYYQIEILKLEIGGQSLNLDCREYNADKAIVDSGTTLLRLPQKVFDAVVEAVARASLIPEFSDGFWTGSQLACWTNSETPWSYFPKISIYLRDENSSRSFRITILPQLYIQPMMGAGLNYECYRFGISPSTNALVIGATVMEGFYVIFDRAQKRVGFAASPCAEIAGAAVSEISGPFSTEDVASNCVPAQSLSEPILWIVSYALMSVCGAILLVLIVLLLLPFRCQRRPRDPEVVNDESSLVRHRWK
The experiment is described as follows: Inhibition of memapsin 1 beta-secretase activity (substrate peptide […], MALDI-TOF). The experiment is classed as biochemical. The note with it: pH 4.1, 37 degrees C., substrate NH3-ELDLAVEFWHDR-CO2, MALDI-TOF; read-out: M1 Ki.

The target of a further experiment is Cathepsin D (Homo sapiens, UniProt P07339). Description: Inhibition of cathepsin D activity (substrate peptide […], MALDI-TOF). The class given is biochemical. As to conditions: pH 4.1, 37 degrees C., substrate NH3-[…]-CO2, MALDI-TOF; read-out: Cath D Ki.
A further experiment concerns the target memapsin 2 (Homo sapiens, UniProt P56817). Description: Inhibition of memapsin 2 beta-secretase activity toward fluorogenic substrate FS-2. The note with it: pH 4, 37° C., 20 minutes pre-incubation, substrate FS-2, tight-binding model; read-out: M2 Ki. The class given is biochemical. A digest of the protocol:
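Enzyme pre-incubated with compound 20 min at pH 4, 37 °C, then fluorogenic substrate FS-2 added. Inhibition derived from rate of fluorescence increase from peptide hydrolysis.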

Another experiment deals with Aβ production. The experiment is described as follows: Cellular Aβ IC50 determination (Aβ40 sandwich ELISA). The experiment is classed as cell-based. As to conditions: Cricetulus griseus, Chinese hamster ovary cells over-expressing human APP695 with London and Swedish mutations, 24 h. How it is done: The potency of compounds against memapsin 2 activity was determined in a cellular assay of Aβ production. […] Chinese hamster ovary cells that over-express human APP695 with the London and Swedish mutations were seeded in multi-well plates at 10% confluency. Compounds were dissolved in DMSO to concentrations near 1 mM, and diluted into culture media to a final concentration near 4 μM (final 0.4% DMSO). Compounds were diluted serially and applied to cells in multi-well plates 48 h after seeding. Incubation was continued in 5% CO2 at 37 degrees C. for 24 h. Aliquots were removed and assayed for Aβ40 content using a sandwich ELISA (BioSource International). Amount of Aβ40 over the range of concentration of compounds, relative to control incubations, were fit to a 4-parameter IC50 model.
For orientation: ELISA stands for enzyme-linked immunosorbent assay.

memapsin 2, sequence (P56817 46-501): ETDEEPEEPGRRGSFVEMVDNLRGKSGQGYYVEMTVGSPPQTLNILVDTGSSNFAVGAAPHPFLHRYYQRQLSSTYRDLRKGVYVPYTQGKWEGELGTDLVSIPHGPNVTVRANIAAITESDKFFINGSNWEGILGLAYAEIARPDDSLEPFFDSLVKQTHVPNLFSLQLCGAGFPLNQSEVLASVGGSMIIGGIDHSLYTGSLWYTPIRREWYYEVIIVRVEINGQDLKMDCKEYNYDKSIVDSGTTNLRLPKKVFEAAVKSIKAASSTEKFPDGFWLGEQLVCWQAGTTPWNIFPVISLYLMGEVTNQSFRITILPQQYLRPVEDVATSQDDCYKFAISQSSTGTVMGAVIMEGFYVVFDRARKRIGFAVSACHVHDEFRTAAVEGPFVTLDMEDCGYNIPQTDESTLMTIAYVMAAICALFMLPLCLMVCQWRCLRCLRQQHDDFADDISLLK
Cathepsin D, sequence (P07339 65-412, species assumed): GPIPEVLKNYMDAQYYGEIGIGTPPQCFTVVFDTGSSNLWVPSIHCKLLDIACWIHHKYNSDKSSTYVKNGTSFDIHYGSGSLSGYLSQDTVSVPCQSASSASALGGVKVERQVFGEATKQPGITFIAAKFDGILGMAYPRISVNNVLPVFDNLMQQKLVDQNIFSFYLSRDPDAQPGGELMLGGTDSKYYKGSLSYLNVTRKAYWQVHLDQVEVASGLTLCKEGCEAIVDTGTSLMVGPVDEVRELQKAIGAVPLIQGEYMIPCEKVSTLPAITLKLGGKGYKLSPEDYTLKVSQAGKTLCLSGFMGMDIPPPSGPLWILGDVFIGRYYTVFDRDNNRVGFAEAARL

Turning to `Cc1nc(COC(=O)N[C@@H](CSC(C)C)C(=O)N[C@H](CC(C)C)[C@@H](O)C[C@@H](C)C(=O)N[C@@H](C(=O)NCC(C)C)C(C)C)c(C)o1` [Structure 60], the negative-log Ki (pKi) is 6.00 to 7.00 at memapsin 1, above 7.00 at Cathepsin D and above 7.00 on memapsin 2. Moreover, the pIC50 in the experiment with Aβ production is above 5.22.

Regarding `CSC[C@H](NC(=O)[C@@H](C)Cc1nc(C)cs1)C(=O)N[C@H](CC(C)C)[C@@H](O)C[C@@H](C)C(=O)N[C@@H](C(=O)NCC(C)C)C(C)C` [Structure 64], the pKi at memapsin 1 was 6.00 to 7.00; on Cathepsin D, above 7.00; on memapsin 2 it was 6.00 to 7.00. The same compound had a pIC50 in the experiment on Aβ production above 5.22.

Regarding `CCC(C)SC[C@H](NC(=O)OCc1nc(C)cs1)C(=O)N[C@H](CC(C)C)[C@@H](O)C[C@@H](C)C(=O)N[C@@H](C(=O)NCC(C)C)C(C)C` (stereo partly drawn) [Structure 66], the results for the negative logarithm of the Ki (pKi) at memapsin 1, on Cathepsin D and at memapsin 2 were 6.00 to 7.00, above 7.00 and above 7.00, respectively. The compound also gave a negative logarithm of the IC50 (pIC50) with Aβ production above 5.22.

With `CCC(C)S(=O)(=O)C[C@H](NC(=O)OCc1nc(C)cs1)C(=O)N[C@H](CC(C)C)[C@@H](O)C[C@@H](C)C(=O)N[C@@H](C(=O)NCC(C)C)C(C)C` (stereo partly drawn) [Structure 67], the pKi on memapsin 1 was 6.00 to 7.00; at Cathepsin D, 6.00 to 7.00; at memapsin 2, above 7.00. Moreover, the pIC50 in the experiment on Aβ production is below 4.00.

On to `Cc1csc(COC(=O)N[C@@H](CS(C)(=O)=O)C(=O)N[C@H](CC(C)C)[C@@H](O)C[C@@H](C)C(=O)N[C@@H](C(=O)NCC(C)C)c2ccccc2)n1` [Structure 68], for which the negative logarithm of the Ki (pKi) at memapsin 1 is 6.00 to 7.00; at Cathepsin D, 6.00 to 7.00; at memapsin 2, above 7.00. Further, the negative logarithm of the IC50 (pIC50) in the experiment on Aβ production was 4.00 to 5.22.

On to `CCc1nc(COC(=O)N[C@@H](CS(C)(=O)=O)C(=O)N[C@H](CC(C)C)[C@@H](O)C[C@@H](C)C(=O)N[C@@H](C(=O)NCC(C)C)C(C)C)c(C)s1` [Structure 71], for which the negative-log Ki (pKi) is 6.00 to 7.00 at memapsin 1, 6.00 to 7.00 at Cathepsin D and above 7.00 on memapsin 2. Also, in the experiment with Aβ production, the pIC50 was below 4.00.

Consider `CCC(CC)SC[C@H](NC(=O)OCc1nc(C)cs1)C(=O)N[C@H](CC(C)C)[C@@H](O)C[C@@H](C)C(=O)N[C@@H](C(=O)NCC(C)C)C(C)C` [Structure 72], for which the figures for the negative logarithm of the Ki (pKi) at memapsin 1, at Cathepsin D and at memapsin 2 were 6.00 to 7.00, above 7.00 and above 7.00, respectively. Also, in the experiment with Aβ production, the pIC50 is above 5.22.

In the case of `CCC(CC)S(=O)(=O)C[C@H](NC(=O)OCc1nc(C)cs1)C(=O)N[C@H](CC(C)C)[C@@H](O)C[C@@H](C)C(=O)N[C@@H](C(=O)NCC(C)C)C(C)C` [Structure 73], the pKi was 6.00 to 7.00 on memapsin 1, 6.00 to 7.00 at Cathepsin D and above 7.00 at memapsin 2. The compound also showed a pIC50 in the experiment with Aβ production of 4.00 to 5.22.

Take `CCc1nc(COC(=O)N[C@@H](CS(C)(=O)=O)C(=O)N[C@H](CC(C)C)[C@@H](O)C[C@@H](C)C(=O)N[C@@H](C(=O)NCC(C)C)C(C)C)c(C)o1` [Structure 74]: the negative-log Ki (pKi) at memapsin 1 is 6.00 to 7.00; at Cathepsin D it was 6.00 to 7.00; on memapsin 2, above 7.00. This compound had a negative-log IC50 (pIC50) in the experiment with Aβ production above 5.22.

Take `CC[C@@H](Cc1nc(C)cs1)C(=O)N[C@@H](CSC)C(=O)N[C@H](CC(C)C)[C@@H](O)C[C@@H](C)C(=O)N[C@@H](C(=O)NCC(C)C)C(C)C` [Structure 75]: the figures for the negative logarithm of the Ki (pKi) on memapsin 1, at Cathepsin D and on memapsin 2 were 6.00 to 7.00, above 7.00 and above 7.00, respectively. The pIC50 with Aβ production is above 5.22.

Regarding `CC[C@@H](Cc1nc(C)cs1)C(=O)N[C@@H](CS(C)(=O)=O)C(=O)N[C@H](CC(C)C)[C@@H](O)C[C@@H](C)C(=O)N[C@@H](C(=O)NCC(C)C)C(C)C` [Structure 77], the negative-log Ki (pKi) at memapsin 1 is 6.00 to 7.00; on Cathepsin D it was above 7.00; on memapsin 2, above 7.00. In the experiment with Aβ production, this compound had a pIC50 above 5.22.

`Cc1nc(COC(=O)N[C@@H](CS(C)(=O)=O)C(=O)N[C@H](Cc2cc(F)cc(F)c2)[C@@H](O)C[C@@H](C)C(=O)N[C@@H](C(=O)NCC(C)C)C(C)C)c(C)o1` [Structure 78]: the negative-log Ki (pKi) is above 7.00 on memapsin 1, above 7.00 on Cathepsin D and 6.00 to 7.00 at memapsin 2. The negative logarithm of the IC50 (pIC50) with Aβ production was 4.00 to 5.22.

On to `Cc1csc(COC(=O)N[C@@H](CS(C)(=O)=O)C(=O)N[C@H](Cc2cc(F)cc(F)c2)[C@@H](O)C[C@@H](C)C(=O)N[C@@H](C(=O)NCC(C)C)C(C)C)n1` [Structure 79], for which the pKi at memapsin 1, at Cathepsin D and at memapsin 2 was above 7.00 each time. Besides, the negative logarithm of the IC50 (pIC50) in the experiment on Aβ production was above 5.22.

As for `Cc1nc(COC(=O)N[C@@H](CS(C)(=O)=O)C(=O)N[C@H](CC(C)C)[C@@H](O)C[C@@H](C)C(=O)N[C@@H](C(=O)O)C(C)C)c(C)o1` [Structure 86], the pKi is 6.00 to 7.00 on memapsin 1, below 6.00 on Cathepsin D and 6.00 to 7.00 on memapsin 2. In the experiment on Aβ production, this compound showed a pIC50 below 4.00.

In the case of `COC(=O)[C@H](NC(=O)[C@H](C)C[C@H](O)[C@@H](CC(C)C)NC(=O)[C@H](CSC)NC(=O)OCc1nc(C)cs1)C(C)C` [Structure 88], the pKi on memapsin 1 is below 6.00; on Cathepsin D, 6.00 to 7.00; on memapsin 2, below 6.00. The compound further had a negative logarithm of the IC50 (pIC50) in the experiment with Aβ production above 5.22.

With `CSC[C@H](NC(=O)OCc1ccn(C)n1)C(=O)N[C@H](CC(C)C)[C@@H](O)C[C@@H](C)C(=O)N[C@@H](C(=O)NCC(C)C)C(C)C` [Structure 93], the pKi was 6.00 to 7.00 at memapsin 1, above 7.00 on Cathepsin D and 6.00 to 7.00 at memapsin 2. For the same compound, the pIC50 with Aβ production was 4.00 to 5.22.

`Cc1nc(COC(=O)N[C@@H](CS(C)(=O)=O)C(=O)N[C@H](CC(C)C)[C@@H](O)C[C@@H](C)C(=O)N[C@@H](C(=O)NCC(C)C)C(C)C)c(C)o1` [Structure 94]: the pKi on memapsin 1 is 6.00 to 7.00; on Cathepsin D it was 6.00 to 7.00; at memapsin 2, above 7.00. In the experiment with Aβ production, this compound gave a pIC50 above 5.22.

With `Cc1coc(COC(=O)N[C@@H](CS(C)(=O)=O)C(=O)N[C@@H](CC(C)C)[C@@H](O)C[C@@H](C)C(=O)N[C@H](C(=O)NCC(C)C)C(C)C)n1` [Structure 95], the negative-log Ki (pKi) at memapsin 1 is below 6.00; at Cathepsin D, 6.00 to 7.00; at memapsin 2, above 7.00. The compound also showed a pIC50 with Aβ production above 5.22.
